Source: ChEMBL document CHEMBL1134423, “Synthesis and acetylcholinesterase inhibition of 5-desamino huperzine A derivatives” (Bioorg Med Chem Lett, 2001)

What was measured:
Acetylcholinesterase [1] = target: T1, Acetylcholinesterase (Rattus norvegicus, UniProt P37136); test: Compound was tested for its ability to inhibit acetylcholinesterase (AChE) in rat brain; assay type: tissue-based
T1 sequence (P37136 whole entry): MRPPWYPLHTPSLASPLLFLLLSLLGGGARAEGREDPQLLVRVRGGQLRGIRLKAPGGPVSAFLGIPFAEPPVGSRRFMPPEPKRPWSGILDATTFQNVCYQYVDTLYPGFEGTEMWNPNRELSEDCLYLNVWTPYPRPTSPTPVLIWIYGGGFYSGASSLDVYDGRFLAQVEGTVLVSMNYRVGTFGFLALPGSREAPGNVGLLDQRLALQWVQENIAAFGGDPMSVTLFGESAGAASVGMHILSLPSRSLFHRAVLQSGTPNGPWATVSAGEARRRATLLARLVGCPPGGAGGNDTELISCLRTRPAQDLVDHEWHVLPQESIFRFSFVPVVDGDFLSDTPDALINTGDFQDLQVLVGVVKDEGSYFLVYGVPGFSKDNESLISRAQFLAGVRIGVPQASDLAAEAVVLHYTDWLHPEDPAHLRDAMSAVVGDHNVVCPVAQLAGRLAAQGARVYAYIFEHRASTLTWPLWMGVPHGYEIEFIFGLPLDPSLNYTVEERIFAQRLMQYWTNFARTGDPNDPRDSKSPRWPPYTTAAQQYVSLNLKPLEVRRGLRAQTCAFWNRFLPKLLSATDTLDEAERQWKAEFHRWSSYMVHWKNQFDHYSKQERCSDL

Acetylcholinesterase [2] = target: T1, Acetylcholinesterase

Row | SMILES | IC50 (Acetylcholinesterase [1]) [µM] | Ki (Acetylcholinesterase [1]) [µM] | Ki (Acetylcholinesterase [2]) [µM]
1 | C/C=C1\C2C=C(C)CC1c1ccc(O)nc1C2 (configuration not stated) | 12.8 | 2 | –
2 | CC1=CC2Cc3nc(O)ccc3C(C1)C2=O (configuration not stated) | > 500 | > 500 | –
3 | C/C=C1/C2C=C(C)CC1c1ccc(=O)[nH]c1C2 (configuration not stated) | 55.5 | 12.3 | –
4 | C/C=C1\[C@H]2C=C(C)C[C@]1(N)c1ccc(=O)[nH]c1C2 [HUPERZINE A] | – | – | 0.024
